Assay [1] concerns the target T1, human calcitonin receptor (CTR) (Homo sapiens, UniProt P30988).
T1 construct: expressed in transfected cells; host or cells: COS-7 (COS7-human CTR Clone #2)
T1 sequence (P30988 25-474): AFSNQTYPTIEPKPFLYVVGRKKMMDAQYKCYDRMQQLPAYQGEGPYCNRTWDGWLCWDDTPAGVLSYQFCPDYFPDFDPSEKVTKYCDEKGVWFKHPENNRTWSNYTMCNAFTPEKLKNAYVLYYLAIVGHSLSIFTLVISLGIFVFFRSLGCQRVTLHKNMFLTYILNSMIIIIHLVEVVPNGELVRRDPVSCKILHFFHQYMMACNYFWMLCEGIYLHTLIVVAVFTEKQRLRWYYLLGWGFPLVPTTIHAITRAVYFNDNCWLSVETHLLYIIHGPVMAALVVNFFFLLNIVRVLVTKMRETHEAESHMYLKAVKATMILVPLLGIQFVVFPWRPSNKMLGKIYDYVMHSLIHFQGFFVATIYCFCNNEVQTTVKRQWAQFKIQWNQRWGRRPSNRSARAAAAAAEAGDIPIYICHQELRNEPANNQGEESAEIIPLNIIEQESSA
Nature of the assay: Calcitonin Receptor (CTR) cAMP Assay. The format is cell-based. The conditions noted are these: COS7-human CTR Clone #2 stable cell line, cAMP dynamic 2 kit, 30 min; read-out: Calcitonin Receptor cAMP Stimulation Activity: EC50. The method in brief: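 cAMP accumulation was measured by HTRF cAMP dynamic 2 read at 665/615 nm, 1 h at room temperature, with results scaled between vehicle and positive control. Before detection, COS7-human CTR stable cells were stimulated 30 min at 37 °C with compound (4-fold dilutions) in IBMX-containing HBSS/HEPES/casein buffer.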

The target in assay [2] is T2, COS-7/AMY3 (human calcitonin receptor (CTR) and RAMP3) (Homo sapiens, UniProt O60896+P30988).
T2 construct: expressed in transfected cells; host or cells: COS-7
T2 sequence (O60896 24-148, one chain of several): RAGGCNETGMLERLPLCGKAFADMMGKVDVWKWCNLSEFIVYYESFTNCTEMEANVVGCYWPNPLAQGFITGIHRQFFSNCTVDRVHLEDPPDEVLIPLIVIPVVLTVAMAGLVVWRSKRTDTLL
The experiment in a line: Amylin Receptor cAMP Assay II. The format is cell-based. As to conditions: values marked **: Amylin Receptor cAMP Assay II; COS-7/AMY3 cells, cAMP dynamic 2 kit, 30 min; read-out: Amylin Receptor cAMP Stimulation Activity: EC50. The method in brief: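 Agonist-induced cAMP was quantified by HTRF ratio at 665/615 nm and expressed as % of the window from vehicle to MAX control. Stimulation lasted 30 min at 37 °C in HBSS/20 mM HEPES/0.5 mM IBMX/0.1% casein, using stable human CTR+RAMP3 (AMY3) COS-7 cells at 2000 per well.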

For orientation: EC50 means the concentration at which the effect is half-maximal. Turning to `Cc1cc2cc(-c3c4c(nc(CCc5ccc(F)cc5)c3-c3n[nH]c(=O)o3)[C@@H]3COCCN3C4=O)sc2c(N[C@@H]2CCc3cc(F)c(F)cc32)n1` [Compound 254, (R)-4-(7-(((R)-5,6-difluoro-2,3-dihydro-1H-inden-1-yl)amino)-5-methylthieno[2,3-c]pyridin-2-yl)-2-(4-fluorophenethyl)-3-(5-oxo-4,5-dihydro-1,3,4-oxadiazol-2-yl)-7,8,10,10a-tetrahydro-5H-pyrido[2′,3′:3,4]pyrrolo[2,1-c][1,4]oxazin-5-one], the EC50 turned out to be 0.0659 nM in assay [1] and 0.707 nM in assay [2].

With `N#Cc1cc2c(cc1F)[C@H](Nc1nccc3cc(-c4c5c(nc(CCc6ccc(F)cc6)c4-c4n[nH]c(=O)o4)[C@@H]4CCCN4C5=O)sc13)CC2` [Compound 165, (R)-6-fluoro-1-((2-((S)-2-(4-fluorophenethyl)-5-oxo-3-(5-oxo-4,5-dihydro-1,3,4-oxadiazol-2-yl)-7,8,9,9a-tetrahydro-5H-pyrido[2,3-a]pyrrolizin-4-yl)thieno[2,3-c]pyridin-7-yl)amino)-2,3-dihydro-1H-indene-5-carbonitrile], the EC50 in assay [1] was 0.539 nM; in assay [2], 6.73 nM.

Take `O=C1c2c(nc(CCc3ccc(F)cc3)c(-c3noc(=O)[nH]3)c2-c2cc3ccnc(NCc4ccc(Cl)c(F)c4)c3s2)[C@@H]2CCCN12` [Compound 147]: the concentration for a half-maximal effect (EC50) in assay [1] worked out at 2.8 nM; in assay [2], 51.9 nM.

As for `N#Cc1ccc(Cn2ccc3cc(-c4c(-c5n[nH]c(=O)o5)c(CCc5ccc(F)cc5)nc5c4c(=O)n4n5CCC4)cnc32)cc1F` [Compound 161], the concentration for a half-maximal effect (EC50) in assay [1] was 1.82 nM; in assay [2] it was 35.8 nM.

Take `O=C1c2c(nc(CCc3ccc(F)cc3)c(-c3n[nH]c(=O)o3)c2-c2cc3ccnc(N[C@@H]4CCc5c(F)cc(F)cc54)c3s2)[C@@H]2CCCN12` [Compound 183, 5-((S)-4-(7-(((R)-4,6-difluoro-2,3-dihydro-1H-inden-1-yl)amino)thieno[2,3-c]pyridin-2-yl)-2-(4-fluorophenethyl)-5-oxo-7,8,9,9a-tetrahydro-5H-pyrido[2,3-a]pyrrolizin-3-yl)-1,3,4-oxadiazol-2(3H)-one]: the figures for the concentration for a half-maximal effect (EC50) in assay [1] and in assay [2] were 0.143 nM and 4.23 nM, respectively.

Turning to `COc1c(F)ccc2c1C[C@@H](F)[C@H]2Nc1nccc2cc(-c3c4c(nc(CCc5ccc(F)cc5)c3-c3n[nH]c(=O)o3)[C@@H]3CCCN3C4=O)sc12` [Compound 260, 5-((S)-4-(7-(((1S,2R)-2,5-difluoro-4-methoxy-2,3-dihydro-1H-inden-1-yl)amino)thieno[2,3-c]pyridin-2-yl)-2-(4-fluorophenethyl)-5-oxo-7,8,9,9a-tetrahydro-5H-pyrido[2,3-a]pyrrolizin-3-yl)-1,3,4-oxadiazol-2(3H)-one], the EC50 in assay [1] came to 0.0529 nM; in assay [2] it was 1.24 nM.

As for `COc1cccc2c1CC[C@H]2Nc1nccc2cc(-c3c4c(nc(CCc5ccc(C6CC6)cc5)c3-c3noc(=O)[nH]3)[C@@H]3CCCN3C4=O)sc12` [Compound 127, 3-((S)-2-(4-cyclopropylphenethyl)-4-(7-(((R)-4-methoxy-2,3-dihydro-1H-inden-1-yl)amino)thieno[2,3-c]pyridin-2-yl)-5-oxo-7,8,9,9a-tetrahydro-5H-pyrido[2,3-a]pyrrolizin-3-yl)-1,2,4-oxadiazol-5(4H)-one], the concentration giving a half-maximal response (EC50) in assay [1] came out at 4.36 nM; in assay [2] it was 143 nM.

As to `C[C@H](Nc1nccc2cc(-c3c4c(nc(CCc5ccc(F)cc5)c3-c3noc(=O)[nH]3)[C@@H]3CCCN3C4=O)sc12)c1ccc(F)c(F)c1` [Compound 141], the figures for the half-maximal effective concentration (EC50) in assay [1] and in assay [2] were 88.8 nM and 711 nM, respectively.

For `COc1c(F)ccc2c1CC(F)(F)[C@H]2Nc1nccc2cc(-c3c4c(nc(CCc5ccc(F)cc5)c3-c3n[nH]c(=O)o3)C35CC(CN3C4=O)C5)sc12` [Compound 283, (S)-5-(2-(4-fluorophenethyl)-5-oxo-4-(7-((2,2,5-trifluoro-4-methoxy-2,3-dihydro-1H-inden-1-yl)amino)thieno[2,3-c]pyridin-2-yl)-5,7,8,9-tetrahydro-8,9a-methanopyrido[2,3-a]pyrrolizin-3-yl)-1,3,4-oxadiazol-2(3H)-one], the concentration giving a half-maximal response (EC50) is 0.0191 nM in assay [1] and 1.57 nM in assay [2].

For the compound `COc1cccc2c1CC[C@H]2Nc1nccc2cc(-c3c4c(nc(CCc5ccc(F)cc5)c3-c3n[nH]c(=O)o3)[C@H]3COCCN3C4=O)sc12` [Compound 234, (S)-2-(4-fluorophenethyl)-4-(7-(((R)-4-methoxy-2,3-dihydro-1H-inden-1-yl)amino)thieno[2,3-c]pyridin-2-yl)-3-(5-oxo-4,5-dihydro-1,3,4-oxadiazol-2-yl)-7,8,10,10a-tetrahydro-5H-pyrido[2′,3′:3,4]pyrrolo[2,1-c][1,4]oxazin-5-one], the figures for the EC50 in assay [1] and in assay [2] were 1.83 nM and 48.1 nM, respectively.

Consider `COc1cccc2c1CC[C@H]2Nc1nccc2cc(-c3c4c(nc(C(C)C)c3-c3n[nH]c(=O)o3)[C@@H]3CCCN3C4=O)sc12` [Compound 185, 5-((S)-2-isopropyl-4-(7-(((R)-4-methoxy-2,3-dihydro-1H-inden-1-yl)amino)thieno[2,3-c]pyridin-2-yl)-5-oxo-7,8,9,9a-tetrahydro-5H-pyrido[2,3-a]pyrrolizin-3-yl)-1,3,4-oxadiazol-2(3H)-one], for which the concentration for a half-maximal effect (EC50) is 15.2 nM in assay [1] and 231 nM in assay [2].

Take `CC(c1ccc(C#N)c(F)c1)n1ccc2cc(-c3c4c(nc(CCC5CCOCC5)c3-c3cc(=O)[nH]o3)[C@@H]3CCCN3C4=O)ccc21` (stereo partly drawn) [Compound 204, 2-fluoro-4-(1-(5-((S)-5-oxo-3-(3-oxo-2,3-dihydroisoxazol-5-yl)-2-(2-(tetrahydro-2H-pyran-4-yl)ethyl)-7,8,9,9a-tetrahydro-5H-pyrido[2,3-a]pyrrolizin-4-yl)-1H-indol-1-yl)ethyl)benzonitrile]: the results for the 50% effective concentration (EC50) in assay [1] and in assay [2] were 5.06 nM and 266 nM, respectively.

Regarding `CC(C)C1CS(=O)(=O)c2c1nc(CCC1CCOCC1)c(-c1n[nH]c(=O)o1)c2-c1cnc2c(ccn2Cc2ccc(C#N)c(F)c2)c1` (stereo not shown) [Compound 157, 2-fluoro-4-((5-(3-isopropyl-1,1-dioxido-6-(5-oxo-4,5-dihydro-1,3,4-oxadiazol-2-yl)-5-(2-(tetrahydro-2H-pyran-4-yl)ethyl)-2,3-dihydrothieno[3,2-b]pyridin-7-yl)-1H-pyrrolo[2,3-b]pyridin-1-yl)methyl)benzonitrile], the EC50 in assay [1] was determined as 7.42 nM; in assay [2] it was 115 nM.

Consider `O=C1c2c(nc(CCc3ccc(F)cc3)c(-c3n[nH]c(=O)o3)c2-c2cc3cc(C(F)F)nc(N[C@@H]4CCOc5c(F)cc(F)cc54)c3s2)C23CC(CN12)C3` [Compound 297, (R)-5-(4-(7-((6,8-difluorochroman-4-yl)amino)-5-(difluoromethyl)thieno[2,3-c]pyridin-2-yl)-2-(4-fluorophenethyl)-5-oxo-8,9-dihydro-5H,7H-8,9a-methanopyrido[2,3-a]pyrrolizin-3-yl)-1,3,4-oxadiazol-2(3H)-one], for which the concentration for a half-maximal effect (EC50) turned out to be 0.0413 nM in assay [1] and 1.07 nM in assay [2].

Take `COc1c(F)ccc2c1CC[C@H]2Nc1nccc2sc(-c3c4c(nc(CCc5ccc(F)cc5)c3-c3n[nH]c(=O)o3)C35CC(CN3C4=O)C5)cc12` [Compound 269, (R)-5-(4-(4-((5-fluoro-4-methoxy-2,3-dihydro-1H-inden-1-yl)amino)thieno[3,2-c]pyridin-2-yl)-2-(4-fluorophenethyl)-5-oxo-8,9-dihydro-5H,7H-8,9a-methanopyrido[2,3-a]pyrrolizin-3-yl)-1,3,4-oxadiazol-2(3H)-one]: the concentration giving a half-maximal response (EC50) in assay [1] was determined as 0.0975 nM; in assay [2], 1.78 nM.

`COc1c(F)ccc2c1CC[C@H]2Nc1nc(C)cc2cc(-c3c4c(nc(CCc5ccc(F)cc5)c3-c3n[nH]c(=O)o3)[C@@H]3COCCN3C4=O)sc12` [Compound 263, (R)-4-(7-(((R)-5-fluoro-4-methoxy-2,3-dihydro-1H-inden-1-yl)amino)-5-methylthieno[2,3-c]pyridin-2-yl)-2-(4-fluorophenethyl)-3-(5-oxo-4,5-dihydro-1,3,4-oxadiazol-2-yl)-7,8,10,10a-tetrahydro-5H-pyrido[2′,3′:3,4]pyrrolo[2,1-c][1,4]oxazin-5-one]: the EC50 in assay [1] amounted to 0.0341 nM; in assay [2] it was 0.629 nM.

`O=C1c2c(nc(CCc3ccc(F)cc3)c(-c3n[nH]c(=O)o3)c2-c2cc3ccnc(N[C@@H]4CCOc5c(F)cc(F)cc54)c3s2)[C@@H]2CCCN12` [Compound 259, 5-((S)-4-(7-(((R)-6,8-difluorochroman-4-yl)amino)thieno[2,3-c]pyridin-2-yl)-2-(4-fluorophenethyl)-5-oxo-7,8,9,9a-tetrahydro-5H-pyrido[2,3-a]pyrrolizin-3-yl)-1,3,4-oxadiazol-2(3H)-one]: the concentration giving a half-maximal response (EC50) in assay [1] worked out at 0.152 nM; in assay [2], 1.52 nM.

For the origin of these results see US12486269B2 (Aconcagua Bio, Inc., priority 2024, dated 2025).
